Results: ChEMBL document CHEMBL1144812, “Small molecules with structural similarities to siderophores as novel antimicrobials against Mycobacterium tuberculosis and Yersinia pestis” (Bioorg Med Chem Lett, 2008)
pIC50: −log10 of the molar value.

Columns and labels:
[1] = molecular target: T1, AMP-binding enzyme family protein (Yersinia pestis, UniProt Q56950); experiment: Inhibition of Yersinia pestis YbtE assessed as incorporation of [3H]salicyl group to HMWP2 protein
T1 sequence (Q56950 whole entry): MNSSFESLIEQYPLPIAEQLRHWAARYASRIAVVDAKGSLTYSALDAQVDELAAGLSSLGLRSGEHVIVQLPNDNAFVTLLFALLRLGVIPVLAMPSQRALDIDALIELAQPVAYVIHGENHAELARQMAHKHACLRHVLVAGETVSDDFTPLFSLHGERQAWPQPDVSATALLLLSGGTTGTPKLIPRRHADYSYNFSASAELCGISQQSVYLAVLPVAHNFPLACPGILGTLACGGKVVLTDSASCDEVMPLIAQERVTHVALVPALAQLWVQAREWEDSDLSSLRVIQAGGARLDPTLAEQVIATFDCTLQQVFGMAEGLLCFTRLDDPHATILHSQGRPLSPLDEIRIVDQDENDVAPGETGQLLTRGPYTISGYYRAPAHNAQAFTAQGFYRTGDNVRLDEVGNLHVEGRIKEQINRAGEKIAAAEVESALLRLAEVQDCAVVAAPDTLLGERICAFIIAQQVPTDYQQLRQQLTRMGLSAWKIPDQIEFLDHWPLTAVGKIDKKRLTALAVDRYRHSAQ

[2] = test system: Mycobacterium tuberculosis; experiment: Antimycobacterial activity against Mycobacterium tuberculosis H37Rv in presence of iron rich GAST-D medium; assay type: functional, organism-based
[3] = test system: Mycobacterium tuberculosis; experiment: Antimycobacterial activity against Mycobacterium tuberculosis H37Rv in presence of iron deficient GAST-D medium; assay type: functional, organism-based
[4] = test system: Mycobacterium tuberculosis; experiment: Ratio of MIC90 for Mycobacterium tuberculosis H37Rv in iron rich GAST-D medium to MIC90 for Mycobacterium tuberculosis H37Rv in presence of iron limiting GAST-D medium; assay type: functional
Yersinia pestis [5] = experiment: Antimicrobial activity against Yersinia pestis KIM6-2082.1+ in presence of iron rich PMH-D medium; assay type: functional, organism-based
Yersinia pestis [6] = experiment: Antimicrobial activity against Yersinia pestis KIM6-2082.1+ in presence of iron limiting PMH-D medium; assay type: functional, organism-based
Yersinia pestis [7] = experiment: Ratio of MIC90 for Yersinia pestis KIM6-2082.1+ in iron rich PMH-D medium to MIC90 for Yersinia pestis KIM6-2082.1+ in presence of iron limiting PMH-D medium; assay type: functional
[8] = Cytotoxicity against human HeLa cells after 24 hrs; assay type: cell-based; conditions: read-out: CD50

Row | Compound | pIC50 [1] | pIC50 [2] | MIC90 [2] | pIC50 [3] | MIC90 [3] | Ratio [4] | pIC50 (Yersinia pestis [5]) | MIC90 (Yersinia pestis [5]) | pIC50 (Yersinia pestis [6]) | MIC90 (Yersinia pestis [6]) | Ratio (Yersinia pestis [7]) | CC50 at 24 h [8]
1 | Cc1ccccc1NC(=S)N1N=C(c2ccccc2O)C[C@H]1c1ccc(O)cc1 | 6.15 | 4.08 | 417 µM | 4.54 | 63 µM | 7 | < 4.72 | > 19 µM | 5.52 | 5 µM | >4 | 21 µM
2 | COc1cc([C@@H]2CC(c3ccc(O)cc3O)=NN2C(=S)Nc2ccccc2)ccc1O | 6.15 | 3.48 | > 500 µM | 4.08 | 125 µM | >4 | < 3.82 | > 150 µM | 6.22 | 2 µM | >75 | 30 µM
3 | Cc1ccccc1NC(=S)N1N=C(c2ccccc2O)C[C@H]1c1ccccc1O | 6.00 | 4.38 | > 500 µM | 4.55 | 104 µM | >5 | < 4.72 | > 19 µM | 5.70 | 5 µM | >4 | 17 µM
4 | Cc1ccc(NC(=S)N2N=C(c3ccccc3O)C[C@H]2c2ccccc2O)cc1 | 6.30 | 3.68 | > 250 µM | 4.57 | 63 µM | >4 | < 5.05 | > 9 µM | 6.10 | 2 µM | >5 | 11 µM
5 | COc1cc([C@@H]2CC(c3ccccc3O)=NN2C(=S)Nc2ccccc2C)ccc1O | 6.00 | 4.02 | > 500 µM | 4.00 | 417 µM | >1 | < 4.72 | > 19 µM | 5.52 | 9 µM | >2 | 15 µM
6 | Oc1ccccc1C1=NN(C(=S)Nc2ccccc2)[C@H](c2ccccc2O)C1 | 6.22 | 4.19 | 100 µM | 4.54 | 83 µM | 1 | < 4.72 | > 19 µM | 6.15 | 2 µM | >10 | 3 µM
7 | COc1ccccc1NC(=S)N1N=C(c2ccc(O)cc2O)C[C@H]1c1ccc(O)cc1 | 6.22 | 3.81 | 250 µM | 4.10 | 125 µM | 2 | < 3.82 | > 150 µM | 6.15 | 3 µM | >50 | 23 µM
8 | Oc1ccccc1C1=NN(C(=S)Nc2ccccc2)[C@H](c2ccco2)C1 | 6.52 | 4.14 | 208 µM | 4.14 | 250 µM | 1 | < 5.05 | > 9 µM | 6.00 | 2 µM | >5 | 3 µM
9 | COc1ccc(NC(=S)N2N=C(c3ccc(O)cc3O)C[C@H]2c2ccc(O)cc2)cc1 | < 4.90 | 3.60 | > 500 µM | 4.20 | 167 µM | >3 | < 3.82 | > 150 µM | 6.40 | 5 µM | >30 | 62 µM
10 | COc1ccc(NC(=S)N2N=C(c3ccccc3O)C[C@H]2c2ccccc2O)cc1 | 6.70 | 3.78 | > 250 µM | 4.55 | 63 µM | >4 | < 5.70 | > 2 µM | 6.00 | 3 µM | >0.7 | 1 µM
